# Assay results: US9067914B1, “Tropomyosin-related kinase (TRK) inhibitors” (Genzyme Corporation, priority 2013, dated 2015)
# What was measured:
# [1] = system: MIA induced osteoarthritis in male Wistar rats; test: Monosodium iodoacetate (MIA) induced osteoarthritis, weight bearing; type: in vivo, rat
# Excerpt: Male Wistar rats were acclimated to the testing facility for 5 days. The rats were individually housed in micro-isolator shoe-box polycarbonate cages with cob bedding and water bottles. Dry pelleted food of known composition and nutritional components was provided ad libitum
# Animals were randomized by treatment type using an online random number generator. Each treatment group was assigned a number, entered into the random number generator, recorded then translated back to the associated treatment. All injections were given in the left leg unless the treatment indicated “Contralateral” in which case the injection was given in the right leg. Both legs were shaved on all animals at the time of the treatment injections to blind the test administrator.
# The rats were weighed the day prior to injection with monosodium iodoacetate (MIA), the agent used to induce osteoarthritis in the animals. The day of injection, rats from groups 2-8 received a subcutaneous (SC) dose of buprenorphine at least one hour prior to induction. […] Naïve animals were then placed in recovery. All other animals received an injection of MIA. In animals receiving MIA, the hind leg was flexed and an injection of MIA (25 μL) was injected into the intra-articular space using a 27 gauge ½ inch needle. Standard postoperative care was performed (twice daily for 48 hours).
# On Day 8 the test article was administered as described above. On Days −1, 7, 14, 21, 28, and 35 post-induction, weight bearing was assessed. A weight bearing scale was utilized using a plexiglass chamber to assess the amount of weight distributed in each hind limb. The animals were acclimated to the chamber for at least 5 minutes prior to testing and the weight distribution was recorded 5 times.
# The animals were terminated at day 36. Both stifles were collected from each animal; the skin was removed from the joint and the patella was removed while leaving as much of the fat pad intact with the joint. The stifle was placed in the appropriate cassette with rolled gauze to secure the stifle in the cassette and then placed into 4% Paraformaldehyde. These samples were examined histologically.
# TrkB = TrkB (Homo sapiens (Human), UniProt Q16620); test: TrkB activity, off-chip mobility shift assay (LabChip 3000); type: biochemical; settings: 70 μM ATP (ATP Km); n/d = none detected
# [2] = system: PGPS knee arthritis in male Lewis rats; test: Reactivated peptidoglycan-polysaccharide (PGPS) knee arthritis; type: in vivo, rat
# Excerpt: Male Lewis rats were acclimated to the testing facility for 7 days. The rats were housed in 5 per cage in shoe-box polycarbonate cages with wire tops, wood chip bedding and suspended food and water bottles.
# On day −21, the male Lewis rats were randomized into treatment groups by body weight. The rats were anesthetized and injected with peptidoglycan-polysaccharide (PGPS) into the right knee to induce PGPS arthritis. Arthritis was reactivated on days 0 and 14 by an IV tail injection of PGPS.
# The rats were weighed at baseline on days 0, 4, 14 and 18. Knee thickness was measured by caliper at baseline and on days 0, 2, 4, 14, 16 and 18. Gait analysis occurred on days 0-4 and 14-18, with video recording of selected animals on days 3 and 17. Gait analysis was performed by applying ink to the ventral surface of the foot and documenting weight bearing during movement across paper.
# The animals were terminated at day 18. Right knees were removed, trimmed of extraneous tissue, and collected into 10% neutral buffered formalin. After two days in the formalin buffer and three days in 10% formic acid decalcifier, the knees were cut into two approximately equal halves in the frontal plane and processed for paraffin embedding and stained with T.Blue. Histological examinations were subsequently performed for bone resorption, inflammation, pannus and cartilage damage.
# Body weights, gait deficiency and caliper measurements were analyzed using a one-way analysis of variance (1-way ANOVA) with Dunnett's multiple comparison post-test. Gait scores were analyzed using a Kruskal-Wallis test (non-parametric ANOVA) with Dunn's multiple comparison post-test. Histopathology scores were analyzed using a Kruskal-Wallis test (non-parametric ANOVA) with Dunn's multiple comparison post-test.
# TrkA = TrkA (Homo sapiens (Human), UniProt P04629); test: TrkA activity, off-chip mobility shift assay (LabChip 3000); type: biochemical; settings: 55 μM ATP (ATP Km); n/d = none detected
# [3] = intra-articular on day -7 (Triamcinolone 0.06 mg; test compound 1 mg)
# [4] = intra-articular on day -7, 1 mg
# [5] = right knee, day 18, intra-articular on day -7 (Triamcinolone 0.06 mg; test compound 1 mg)
# TrkA, sequence (P04629 33-796): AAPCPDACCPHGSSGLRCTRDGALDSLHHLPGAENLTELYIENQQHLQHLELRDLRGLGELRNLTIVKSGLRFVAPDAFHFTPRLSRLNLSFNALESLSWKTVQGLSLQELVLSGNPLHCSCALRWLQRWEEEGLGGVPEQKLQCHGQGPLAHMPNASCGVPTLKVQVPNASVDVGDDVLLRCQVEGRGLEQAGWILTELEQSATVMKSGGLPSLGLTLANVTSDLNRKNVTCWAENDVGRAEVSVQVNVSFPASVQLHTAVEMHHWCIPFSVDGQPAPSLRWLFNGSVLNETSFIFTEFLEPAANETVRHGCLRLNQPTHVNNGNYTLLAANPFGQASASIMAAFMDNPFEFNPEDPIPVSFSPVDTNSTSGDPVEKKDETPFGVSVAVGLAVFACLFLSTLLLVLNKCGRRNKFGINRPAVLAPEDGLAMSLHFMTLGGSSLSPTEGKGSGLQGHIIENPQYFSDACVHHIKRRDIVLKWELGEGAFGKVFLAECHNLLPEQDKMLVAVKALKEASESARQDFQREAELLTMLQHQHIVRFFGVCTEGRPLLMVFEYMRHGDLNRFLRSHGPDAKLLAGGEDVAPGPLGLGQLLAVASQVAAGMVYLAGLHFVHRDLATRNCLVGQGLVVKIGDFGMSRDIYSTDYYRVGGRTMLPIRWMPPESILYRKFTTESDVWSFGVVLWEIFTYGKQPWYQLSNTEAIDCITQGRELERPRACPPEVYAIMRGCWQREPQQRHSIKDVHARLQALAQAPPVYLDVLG
# TrkB, sequence (Q16620 32-822): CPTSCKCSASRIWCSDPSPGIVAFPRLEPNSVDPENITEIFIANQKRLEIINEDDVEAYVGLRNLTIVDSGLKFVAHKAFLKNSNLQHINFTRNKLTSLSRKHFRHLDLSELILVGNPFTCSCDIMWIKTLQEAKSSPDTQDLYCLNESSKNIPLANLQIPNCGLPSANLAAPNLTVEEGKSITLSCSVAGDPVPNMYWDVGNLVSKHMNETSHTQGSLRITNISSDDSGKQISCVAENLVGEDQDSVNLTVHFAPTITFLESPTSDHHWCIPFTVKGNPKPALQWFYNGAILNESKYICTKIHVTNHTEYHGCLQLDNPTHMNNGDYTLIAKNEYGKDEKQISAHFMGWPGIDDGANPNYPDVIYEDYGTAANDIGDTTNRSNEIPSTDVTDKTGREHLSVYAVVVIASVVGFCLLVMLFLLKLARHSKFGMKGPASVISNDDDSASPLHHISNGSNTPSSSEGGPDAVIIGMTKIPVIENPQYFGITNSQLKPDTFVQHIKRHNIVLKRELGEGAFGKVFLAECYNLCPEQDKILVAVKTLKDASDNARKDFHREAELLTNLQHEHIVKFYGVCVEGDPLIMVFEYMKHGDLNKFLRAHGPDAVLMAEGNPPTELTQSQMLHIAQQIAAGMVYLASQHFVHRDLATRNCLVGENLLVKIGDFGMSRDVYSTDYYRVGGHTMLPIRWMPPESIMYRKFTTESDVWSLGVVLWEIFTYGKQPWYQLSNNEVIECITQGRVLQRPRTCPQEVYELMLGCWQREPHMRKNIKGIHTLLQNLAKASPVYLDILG
smiles,measurement,setting,value
"COc1ccc(COc2ccc(Cn3c(N)nc4cc(-c5cnn(C)c5)cnc43)cc2OC)cc1 [Ex. 3-15, 3-(3-Methoxy-4-((4-methoxybenzyl)oxy)benzyl)-6-(1-methyl-1H-pyrazol-4-yl)-3H-imidazo[4,5-b]pyridin-2-amine]",Efficacy (weight bearing),[1]; 10 μg Contralateral injection on Day 8,efficacy at 3 and 4 weeks following administration
same,Efficacy (weight bearing),[1]; 10 μg Ipsilateral injection on Day 8,efficacy was observed at 2 through 4 weeks following administration
same,Efficacy (weight bearing),[1]; 30 μg Contralateral injection on Day 8,efficacy at only the 3 week timepoint
same,Efficacy (weight bearing),[1]; 30 μg Ipsilateral injection on Day 8,effective throughout the four weeks following administration
same,Systemic pain relief (weight bearing),"[1]; 100 μg Contralateral injection on Day 8, 1-4 weeks",did not show systemic pain relief at any timepoint
same,Efficacy (weight bearing),[1]; 100 μg Ipsilateral injection on Day 8,effective throughout the four weeks following administration
same,Comparison with MIA/LRS at day 35 (p<0.05),[1]; Ipsilateral 30 μg,MIA/LRS was significantly worse
same,Comparison with MIA/LRS at day 35 (p<0.05),[1]; Ipsilateral 100 μg,MIA/LRS was significantly worse
same,Body weight results,"[1]; male Wistar rats, intra-articular on Day 8",No adverse observations
same,Histopathology of the knee joint,[1]; stifles collected at day 36,no adverse changes
same,IC50,TrkB,0.1 nM
same,Knee caliper measurements,[2]; [3],significantly reduced on day 14
same,Reduction of knee caliper AUC,[2]; [3],generally unaffected
same,"Reduction of gait scores and deficiency AUC, first reactivation",[2]; [4],92-93%
same,"Reduction of gait scores and deficiency AUC, second reactivation",[2]; [4],85-86%
same,Reduction of summed AUC for gait deficiency,[2]; [4],84%
same,"Gait scores and deficiency, first reactivation","[2]; male Lewis rats, intra-articular on day -7 (Triamcinolone 0.06 mg; test compound 1 mg), days 1-4",significant reductions
same,"Gait scores and deficiency, second reactivation: significant reduction","[2]; male Lewis rats, intra-articular on day -7 (Triamcinolone 0.06 mg; test compound 1 mg), days 14-18","Scores were significantly reduced throughout the second reactivation, and reductions in deficiency were significant on days 15, 17, and 18"
same,Histopathology: reduction in summed scores,[2]; [5],70%
same,"Histopathology: reductions in all parameters (bone resorption, inflammation, pannus, cartilage damage)",[2]; [5],49-94%
same,IC50,TrkA,0.3 nM
